Biological target: T1, recombinant human PDK1 (Homo sapiens, UniProt O15530)
T1 construct: containing amino acids 51-556 of the human PDK1 enzyme; made in house; host or cells: Sf9 insect cells
T1 sequence (O15530 51-556): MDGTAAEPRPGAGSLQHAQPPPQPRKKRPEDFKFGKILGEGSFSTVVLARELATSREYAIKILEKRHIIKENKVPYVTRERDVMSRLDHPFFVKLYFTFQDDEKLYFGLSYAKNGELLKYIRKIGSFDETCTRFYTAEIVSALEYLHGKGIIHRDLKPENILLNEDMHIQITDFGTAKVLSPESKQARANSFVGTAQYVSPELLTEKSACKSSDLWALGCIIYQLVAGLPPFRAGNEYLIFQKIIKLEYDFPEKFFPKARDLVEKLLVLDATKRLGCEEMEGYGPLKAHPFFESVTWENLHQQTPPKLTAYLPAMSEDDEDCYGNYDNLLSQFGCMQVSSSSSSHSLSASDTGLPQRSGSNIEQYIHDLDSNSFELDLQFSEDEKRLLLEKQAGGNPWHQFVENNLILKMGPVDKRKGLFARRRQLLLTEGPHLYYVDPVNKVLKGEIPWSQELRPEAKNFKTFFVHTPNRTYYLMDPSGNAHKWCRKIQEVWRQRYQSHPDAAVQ
Assay: PDK1 IMAP fluorescence polarization assay (inhibition of peptide substrate phosphorylation)
Format: biochemical
Details: Table 6; 10 nM PDK1 enzyme, 100 nM peptide substrate, 100 nM PIFtide, 2.5 uM ATP, 1.5 hours

Compound	IC50 [nM]
Cc1cc(-c2c[nH]c(C(=O)Nc3cccc(F)c3N3CCC4(CCCNC4)CC3)n2)ccn1 [Compound 46, N-[2-(2,9-diazaspiro[5,5]undec-9-yl)-3-fluorophenyl]-4-(2-methyl-4-pyridinyl)-1H-imidazole-2-carboxamide]	51 to 250
NCC1CCN(c2ccc(-c3cn[nH]c3)cc2NC(=O)c2nc(-c3cn[nH]c3)c[nH]2)CC1 [Compound 51, N-[2-[4-(aminomethyl)-1-piperidinyl]-5-(1H-pyrazol-4-yl)phenyl]-4-(1H-pyrazol-4-yl)-1H-imidazole-2-carboxamide]	251 to 1000
CCC1(CN)CCN(c2c(F)cccc2NC(=O)c2nc(-c3ccnc(C)c3)c[nH]2)CC1 [Compound 52, N-[2-[4-(aminomethyl)-4-ethyl-1-piperidinyl]-3-fluorophenyl]-4-(2-methyl-4-pyridinyl)-1H-imidazole-2-carboxamide]	51 to 250
Cc1cc(-c2c[nH]c(C(=O)Nc3cccc(F)c3N3CC4CCC(C3)N4)n2)ccn1 [Compound 54, N-[2-(3,8-diazabicyclo[3.2.1]oct-3-yl)-3-fluorophenyl]-4-(2-methyl-4-pyridinyl)-1H-imidazole-2-carboxamide]	1000 to 5000
Cc1cc(-c2c[nH]c(C(=O)Nc3cccc(F)c3N3CCC(C)(CN)CC3)n2)ccn1 [Compound 55, N-[2-[4-(aminomethyl)-4-methyl-1-piperidinyl]-3-fluorophenyl]-4-(2-methyl-4-pyridinyl)-1H-imidazole-2-carboxamide]	51 to 250
Cc1cc(-c2c[nH]c(C(=O)Nc3cccc(F)c3N3CC4CNCC4C3)n2)ccn1 (stereo not drawn) [Compound 58, N-[3-fluoro-2-(hexahydropyrrolo[3,4-c]pyrrol-2(1H)-yl)phenyl]-4-(2-methyl-4-pyridinyl)-1H-imidazole-2-carboxamide]	1000 to 5000
Cc1cc(-c2c[nH]c(C(=O)Nc3cccc(F)c3N3CCC(C(=O)NCC(O)C(F)(F)F)CC3)n2)ccn1 (stereo not drawn) [Compound 62, 1-[2-fluoro-6-[[[4-(2-methyl-4-pyridinyl)-1H-imidazol-2-yl]carbonyl]amino]phenyl]-N-(3,3,3-trifluoro-2-hydroxypropyl)-4-piperidinecarboxamide]	1000 to 5000
Cc1cc(-c2c[nH]c(C(=O)Nc3cccc(F)c3N3CCC(C(=O)N[C@H](C)c4ccccc4)CC3)n2)ccn1 [Compound 65, 1-[2-fluoro-6-[[[4-(2-methyl-4-pyridinyl)-1H-imidazol-2-yl]carbonyl]amino]phenyl]-N-(1(R)-phenylethyl)-4-piperidinecarboxamide]	1000 to 5000
NCC1CCN(c2c(F)cccc2NC(=O)c2nc(-c3cc(C(N)=O)nc(O)n3)c[nH]2)CC1 [Compound 68, 6-[2-[[[2-[4-(aminomethyl)-1-piperidinyl]-3-fluorophenyl]amino]carbonyl]-1H-imidazol-4-yl]-2-hydroxy-4-pyrimidinecarboxamide]	1 to 50
NCC1CCN(c2c(F)cccc2NC(=O)c2nc(-c3cc(NCc4ccccc4)nc(N)n3)c[nH]2)CC1 [Compound 69, N-[2-[4-(aminomethyl)-1-piperidinyl]-3-fluorophenyl]-4-[2-amino-6-[(phenylmethyl)amino]-4-pyrimidinyl]-1H-imidazole-2-carboxamide]	1 to 50
NCC1CCN(c2c(F)cccc2NC(=O)c2nc(-c3cc(NCc4ccc(C(F)(F)F)cc4)nc(N)n3)c[nH]2)CC1 [Compound 70, N-[2-[4-(aminomethyl)-1-piperidinyl]-3-fluorophenyl]-4-[2-amino-6-[[[4-(trifluoromethyl)phenyl]methyl]amino]-4-pyrimidinyl]-1H-imidazole-2-carboxamide]	51 to 250
NCC1CCN(c2c(F)cccc2NC(=O)c2nc(-c3cc(NCc4ccc(F)cc4)nc(N)n3)c[nH]2)CC1 [Compound 71, 4-[2-amino-6-[[(4-fluorophenyl)methyl]amino]-4-pyrimidinyl]-N-[2-[4-(aminomethyl)-1-piperidinyl]-3-fluorophenyl]-1H-imidazole-2-carboxamide]	1 to 50

Second part, the compound after the results:

IC50 [nM]	Compound
51 to 250	NCC1CCN(c2c(F)cccc2NC(=O)c2nc(-c3ccnc(NC4CC4)c3)c[nH]2)CC1 [Compound 42, N-[2-[4-(aminomethyl)-1-piperidinyl]-3-fluorophenyl]-4-[2-(cyclopropylamino)-4-pyridinyl]-1H-imidazole-2-carboxamide]
51 to 250	Cc1cc(-c2c[nH]c(C(=O)Nc3cccc(F)c3N3CCC4CCNC4C3)n2)ccn1 (stereo not drawn) [Compound 43, N-[3-fluoro-2-(octahydro-6h-pyrrolo[2,3-c]pyridin-6-yl)phenyl]-4-(2-methyl-4-pyridinyl)-1H-imidazole-2-carboxamide]
251 to 1000	N#Cc1cccc(-c2c[nH]c(C(=O)Nc3cccc(F)c3N3CCC(CN)CC3)n2)n1 [Compound 44, N-[2-[4-(aminomethyl)-1-piperidinyl]-3-fluorophenyl]-4-(6-cyano-2-pyridinyl)-1H-imidazole-2-carboxamide]
1000 to 5000	CC(=O)c1ccc(-c2c[nH]c(C(=O)Nc3cccc(F)c3N3CCC(CN)CC3)n2)s1 [Compound 45, 4-(5-acetyl-2-thienyl)-N-[2-[4-(aminomethyl)-1-piperidinyl]-3-fluorophenyl]-1H-imidazole-2-carboxamide]
1 to 50	Cc1cc(-c2c[nH]c(C(=O)Nc3cccc(F)c3N3CCC(CN)CC3)n2)nc(N)n1 [Compound 47, N-[2-[4-(aminomethyl)-1-piperidinyl]-3-fluorophenyl]-4-(2-amino-6-methyl-4-pyrimidinyl)-1H-imidazole-2-carboxamide]
251 to 1000	NCC1CCN(c2c(F)cccc2NC(=O)c2nc(-c3cc(C(F)(F)F)n[nH]3)c[nH]2)CC1 [Compound 48, N-[2-[4-(aminomethyl)-1-piperidinyl]-3-fluorophenyl]-4-[3-(trifluoromethyl)-1H-pyrazol-5-yl]-1H-imidazole-2-carboxamide]
51 to 250	Cc1nc(N)cc(-c2c[nH]c(C(=O)Nc3cccc(F)c3N3CCC(CN)CC3)n2)n1 [Compound 49, N-[2-[4-(aminomethyl)-1-piperidinyl]-3-fluorophenyl]-4-(6-amino-2-methyl-4-pyrimidinyl)-1H-imidazole-2-carboxamide]
251 to 1000	Cc1cc(-c2c[nH]c(C(=O)Nc3cccc(F)c3N3CCC(CN(C)C)CC3)n2)ccn1 [Compound 50, N-[2-[4-[(dimethylamino)methyl]-1-piperidinyl]-3-fluorophenyl]-4-(2-methyl-4-pyridinyl)-1H-imidazole-2-carboxamide]
1 to 50	NCC1CCN(c2c(F)cccc2NC(=O)c2nc(-c3cn[nH]c3)c[nH]2)CC1 [Compound 53, N-[2-[4-(aminomethyl)-1-piperidinyl]-3-fluorophenyl]-4-(1H-pyrazol-4-yl)-1H-imidazole-2-carboxamide]
51 to 250	COC(=O)c1cccc(-c2c[nH]c(C(=O)Nc3cccc(F)c3N3CCC(CN)CC3)n2)c1 [Compound 56, methyl 3-[2-[[[2-[4-(aminomethyl)-1-piperidinyl]-3-fluorophenyl]amino]carbonyl]-1H-imidazol-4-yl]benzoate]
251 to 1000	CNCC1CCN(c2c(F)cccc2NC(=O)c2nc(-c3ccnc(C)c3)c[nH]2)CC1 [Compound 57, N-[3-fluoro-2-[4-[(methylamino)methyl]-1-piperidinyl]phenyl]-4-(2-methyl-4-pyridinyl)-1H-imidazole-2-carboxamide]
1000 to 5000	CNC(=O)C1CCN(c2c(F)cccc2NC(=O)c2nc(-c3ccnc(C)c3)c[nH]2)CC1 [Compound 59, 1-[2-fluoro-6-[[[4-(2-methyl-4-pyridinyl)-1H-imidazol-2-yl]carbonyl]amino]phenyl]-N-methyl-4-piperidinecarboxamide]
1000 to 5000	CCNC(=O)C1CCN(c2c(F)cccc2NC(=O)c2nc(-c3ccnc(C)c3)c[nH]2)CC1 [Compound 60, N-ethyl-1-[2-fluoro-6-[[[4-(2-methyl-4-pyridinyl)-1H-imidazol-2-yl]carbonyl]amino]phenyl]-4-piperidinecarboxamide]
1000 to 5000	Cc1cc(-c2c[nH]c(C(=O)Nc3cccc(F)c3N3CCC(C(=O)N(C)C)CC3)n2)ccn1 [Compound 61, 1-[2-fluoro-6-[[[4-(2-methyl-4-pyridinyl)-1H-imidazol-2-yl]carbonyl]amino]phenyl]-N,N-dimethyl-4-piperidinecarboxamide]
1000 to 5000	NCC1CCN(c2c(F)cccc2NC(=O)c2nc(-c3cncnc3)c[nH]2)CC1 [Compound 63, N-[2-[4-(aminomethyl)-1-piperidinyl]-3-fluorophenyl]-4-(5-pyrimidinyl)-1H-imidazole-2-carboxamide]
1000 to 5000	Cc1cc(-c2c[nH]c(C(=O)Nc3cccc(F)c3N3CCC(C(=O)N4CC[C@H](F)C4)CC3)n2)ccn1 [Compound 64, N-[3-fluoro-2-[4-[(3(S)-fluoro-1-pyrrolidinyl)carbonyl]-1-piperidinyl]phenyl]-4-(2-methyl-4-pyridinyl)-1H-imidazole-2-carboxamide]
1000 to 5000	Cc1cc(-c2c[nH]c(C(=O)Nc3cccc(F)c3N3CCC(C(=O)N4CCC4)CC3)n2)ccn1 [Compound 66, N-[2-[4-(1-azetidinylcarbonyl)-1-piperidinyl]-3-fluorophenyl]-4-(2-methyl-4-pyridinyl)-1H-imidazole-2-carboxamide]
51 to 250	Cc1cc(-c2c[nH]c(C(=O)Nc3cccc(F)c3N3CCC(C(C)(C)N)CC3)n2)ccn1 [Compound 67, N-[2-[4-(1-amino-1-methylethyl)-1-piperidinyl]-3-fluorophenyl]-4-(2-methyl-4-pyridinyl)-1H-imidazole-2-carboxamide]

Source: patent publication US8623857B2, “N-phenyl imidazole carboxamide inhibitors of 3-phosphoinositide-dependent protein kinase-1” (Merck Sharp & Dohme Corp., priority 2010, dated 2014)
